Source: PubChem BioAssay (NCI)
Several values for one entry are separate records, joined by “and”; a condition that tells them apart may be missing. Equal values may be shown once.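 Each compound was tested at five concentrations against cells in 96-well plates for 48 hours. GI50 = concentration required for 50% inhibition of growth. TGI: concentration producing complete growth inhibition.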

System: MDA-MB-468 breast
Experiment: NCI-60 cell line screen, 48 h

Row | Compound | GI50 | TGI
1 | CO[C@H]1CC[C@@]2(C)C(=CC[C@H]3[C@@H]4C[C@H](O)C[C@@]4(C)CC[C@@H]32)C1 | 2410 nM | 9.07 µM
2 | COc1cccc2c1c1nc3cc(C)c(C)cc3nc1n2CCN(C)C | 1540 nM | 4.14 µM
3 | O=C(Nc1ccc(Br)c(Cl)c1)c1cc(F)ccc1O | 942 nM | 3.35 µM
4 | O=C(O)CCC1CCC(c2cc(F)ccc2F)(S(=O)(=O)c2ccc(Cl)cc2)CC1 (stereo unspecified) | 13100 nM and 45300 nM | 52.5 µM and > 100 µM
5 | COC(=O)c1c2c(c(C)[n+]([O-])c1C)C(=O)C(NCc1ccc(F)c(F)c1)=CC2=O | 1160 nM | 3.07 µM
6 | Clc1ccc(CO/N=C(\Cn2ccnc2)c2ccc(Cl)cc2Cl)c(Cl)c1 | 1590 nM | 3.06 µM
7 | CCCCCc1ccc(S(=O)(=O)Nc2cc(-c3csc(NC(=O)CN4CCN(C)CC4)n3)ccc2N2CCN(C)CC2)cc1 | 901 nM | 2.02 µM
8 | Cc1ccc(S(=O)(=O)n2cc(C(=O)C(=O)Nc3ccncc3)c3ccccc32)cc1 | 1100 nM | 9.53 µM
9 | COc1ccc(F)cc1C(=O)c1cnc(NC2CCN(S(C)(=O)=O)CC2)nc1N | 3950 nM | 9.87 µM
10 | Cc1cccc(N=C2c3cc([N+](=O)[O-])ccc3-c3c2cc([N+](=O)[O-])cc3[N+](=O)[O-])c1 | 1670 nM | 3.32 µM
11 | C/C(=C\c1ccn(-c2ccc(N)cc2)n1)[C@@H]1C[C@@H]2O[C@]2(C)CCC[C@H](C)[C@H](O)[C@@H](C)C(=O)C(C)(C)[C@@H](O)CC(=O)O1 | 39.1 nM | 1.19 µM
12 | COc1ccc(Nc2ccnc(NCCCNc3ccnc4cc(Cl)ccc34)n2)cc1 | 871 nM | 2.42 µM
13 | COc1ccc(-c2nc(-c3nc4cc(C)c(C)cc4[nH]3)cc3c2[nH]c2ccccc23)cc1 | 1990 nM | 4.78 µM
14 | [N-]=[N+]=CC(=O)OCC(N)C(=O)O (stereo unspecified) | 1210 nM | 11.1 µM
15 | NC(=O)Oc1cc(OC(N)=O)cc(N(CCCl)CCCl)c1 | 1710 nM | 13 µM
16 | CN1CCN(Cc2ccc(NC(=O)c3cncc(C#Cc4c(N)ncc5cc(F)ccc45)c3)cc2C(F)(F)F)CC1 | 6300 nM | 15.4 µM
17 | CC/C(=C(\CC)c1ccc(OCCN(CC)CC)cc1)c1ccc(OCCN(CC)CC)cc1 | 1590 nM | 3.64 µM
18 | CO[C@H](C(=O)N[C@@H](CCCCNC(=O)OCc1ccccc1)C(=O)OC(C)(C)C)[C@@H]1Cc2cc3cc(OC4CC(OC5CC(O)C(O)C(C)O5)C(O)C(C)O4)c(C)c(O)c3c(O)c2C(=O)[C@H]1OC1CC(OC2CC(OC3CC(C)(O)C(O)C(C)O3)C(O)C(C)O2)C(O)C(C)O1 (stereo partly specified) | 764 nM | 2.92 µM
19 | Cc1ccc(C(=O)NC2CCCCC2)cc1-c1ccc(C(=O)NCC2CC2)cc1 | > 23600 nM | > 25 µM
20 | COc1cnc2c(c1)C(=O)c1c-2n(CCCN2CCN(C)CC2)c(=O)c2cc(Cl)ccc12 | 1190 nM | 14.8 µM

Row | Compound | GI50 | TGI
21 | CN1CCN(Cc2ccc(Nc3ncc(Cl)c(Nc4ccccc4S(=O)(=O)N(C)C)n3)cc2)CC1 | 52.5 nM | 0.268 µM
22 | O=C(Cn1ccnc1[N+](=O)[O-])NCC(F)(F)C(F)(F)F | > 100000 nM | > 100 µM
23 | O=C1/C(=C/C(Cl)=C/c2ccccc2)SC(=S)N1CCc1ccc(O)cc1 | 1890 nM | 6.04 µM
24 | O=C1/C(=C/c2ccc(Cl)cc2)CN(C(=O)C(Cl)Cl)C/C1=C\c1ccc(Cl)cc1 | 182 nM | 0.376 µM
25 | Cc1ccc(NC(=O)c2ccnc(N3CCCC3)c2)cc1-c1ccc(C(=O)NCC2CC2)cc1 | > 25000 nM | > 25 µM
26 | COC(=O)[C@@H](C)C[C@H](Cc1ccccc1)NC(=O)c1csc([C@@H](C[C@H](C(C)C)N(C)C(=O)[C@@H](NC(=O)[C@H]2CCCCN2C)C(C)C)OC(C)=O)n1 | – | > 25 µM
27 | CCCCCCCCCCCCCCCCOCCCOP(=O)(O)C1CCCN(O)C1=O (stereo unspecified) | 2570 nM | 9.93 µM
28 | CN(C)CC1CCn2c(c(C3=C(c4cn(C)c5ccccc45)C(=O)NC3=O)c3ccccc32)C1 (stereo unspecified) | 3510 nM | 7.57 µM
29 | CC[C@H](C)C(=O)O[C@H]1CCC=C2C=C[C@H](C)C(CCC3C[C@@H](O)CC(=O)O3)[C@H]21 (stereo partly specified) | 5850 nM | 30.8 µM
30 | COc1cc2c3c(n(C4CCNCC4)c(=O)c2cc1OC)-c1cc2c(cc1C3=O)OCO2 | 455 nM | 1.85 µM
31 | C#C[C@@]1(O)[C@@H](CO)O[C@@H](n2cc(F)c3c(N)ncnc32)[C@@H]1O | 301 nM | 1.53 µM
32 | C=C[C@]1(C)C=C2C(=O)[C@@]3(O)OC(=O)[C@@]4(CCCC(C)(C)[C@H]34)[C@@]2(O)CC1 | 414 nM | 2 µM
33 | Cn1cc(C2=C(c3c4n(c5ccccc35)CCC(CN)CC4)C(=O)NC2=O)c2ccccc21 (stereo unspecified) | 3720 nM | 7.51 µM
34 | CCNc1nc(N2CC(=O)Nc3cc(OC)ccc32)c2ccccc2n1 | 0.26 nM | –
35 | COc1cc(C(=O)n2nc(N3CCN(C)CC3)c3cc(N)ccc32)cc(OC)c1OC | 2970 nM | 9.38 µM
36 | Cc1ccc2sc3c(NCCCNCCO)nc4ccccc4c3c(=O)c2c1 | 1540 nM | 3.16 µM
37 | COC(=O)Nc1nc2ccc(Oc3ccc(NC(=O)Nc4cccc(Cl)c4)cc3)cc2[nH]1 | 269 nM | 2.2 µM
38 | CCOC(=O)c1c(Cl)c2c(n1Cc1cc(OC)cc(OC)c1)-c1oncc1CCC2 | 526 nM | > 100 µM
39 | CCN1CCN(S(=O)(=O)c2oc(-c3ccc(Cl)cc3)nc2C#N)CC1 | 2210 nM | 5.16 µM
